# Measured values: patent publication US8252832B2, “Kinesin inhibitors as cancer therapeutics” (Novartis AG, priority 2007, dated 2012)
# Where two headings read alike, the source gives them in different places.
# What was measured:
# Assay in all cases: CellTiter-Glo, hematologic malignancy panel
# Assay type in all cases: cell-based
# [1] = test system: H929-Luc; settings: MM
# Text: (§1) Identification of tumor types that are the most sensitive to the KSP inhibitors of the present invention can be accomplished using an unbiased approach that uses several cell-based assays. The assays chosen were as follows: • CellTiter-Glo®. This is an assay designed to measure ATP concentration in a cell culture, and can be correlated to cell number. Briefly CellTiter-Glo® (Promega Corporation) is a homogeneous method using the single CellTiter-Glo® reagent to detect ATP wherein ATP in the assay drives the activity of a thermostable luciferase to create a luminescent signal which can then be measured and correlated with the number of viable cells. Briefly, for adherent cells, 1,000 to 5,000 cells/well were plated in 96-well plates (100 μl/well) and let to adhere for 24 hours before being treated with drug. For non-adherent cells, 1,000 to 10,000 cells/well were plated in 96-well plates (100 μl/well) and immediately treated with drug. Drug dilutions were prepared in DMSO at 1000 times the final concentration. These dilutions were then diluted 1/100 in growth media before being added to the cells (11 μl/well) to achieve the desired final concentration. After 48 h in a 37° C. tissue culture incubator, the plates were processed for the CellTiter-Glo®assay according to the manufacturer's instructions. Protocol for a 72 hour cell proliferation assay: The 72 hour assay was performed the same way as the 48 hour assay except for the following modifications: For adherent cells, 500 to 5,000 cells/well were plated in 96-well plates (90 μl/well cell growth media) and left to adhere for 24 hours before being treated with drug. For non-adherent cells, 1,000 to 10,000 cells/well were plated in 96-well plates (90 μl/well cell growth media) and immediately treated with drug. Data values presented represent the concentration of test compound required for a 50% reduction in growth. • LDH release. The Cytotoxicity Detection KitPLUS (LDH) assay (Roche Diagnostics, Manheim, Germany) measures the amount of LDH released in the media by dying cells; LDH catalyzes the conversion of lactate into pyruvate. The enzymatic reaction is coupled to a chemical reaction that uses a tetrazolium salt to form a formazan that is red and can be detected by its absorbance at 490 nm. This assay measures the amount of cell death after drug treatment. Cells were plated at 10,000 cells/well in 96-well plates (100 μl/well). Adherent cells were let to adhere for 24 hours before being treated with drug, whereas non-adherent cells were immediately treated with drug. Drug dilutions were prepared in DMSO at 1000 times the final concentration. These dilutions were then diluted 1/100 in growth media before being added to the cells (11 μl/well) to achieve the desired final concentration. After 48 h in a 37° C. tissue culture incubator, the plates were processed for the Cytotoxicity Detection KitPLUS (LDH) assay according to the manufacturer's instructions. The media only values were subtracted from all the data points before analysis. Data values presented correspond to the compound concentration wherein LDH output is at half maximal level. • Caspase-Glo® 3/7. The Caspase-Glo® 3/7 Assay (Promega Corporation) is a homogeneous luminescent assay that measures caspase-3/7 activities. The assay provides a proluminescent caspase-3/7 DEVD-aminoluciferin substrate and a thermostable luciferase in a reagent optimized for caspase-3/7 activity, luciferase activity and cell lysis. Adding the single Caspase-Glo® 3/7 Reagent results in cell lysis, followed by caspase cleavage of the substrate. This liberates free aminoluciferin, which is consumed by the luciferase, generating a luminescent signal. The signal is proportional to caspase-3/7 activity. Data values presented correspond to the compound concentration wherein caspase 3/7 activity is at half maximal level. […]
# [2] = test system: H929; settings: for GI50: Homo sapiens, NCI-H929, MM
# Text: as §1
# [3] = test system: HL60-Luc; settings: AML; for GI50: HL-60-Luc
# Text: as §1
# [4] = test system: K562; settings: CML; for GI50: Homo sapiens
# Text: as §1
# [5] = test system: KM-H2; settings: HL; for GI50: Homo sapiens
# Text: as §1
# [6] = test system: KMS11; settings: for GI50: Homo sapiens, KMS-11, MM
# Text: as §1
# [7] = test system: Karpas-299-Luc; settings: NHL
# Text: as §1
# [8] = test system: Kasumi-1; settings: AML; for GI50: Homo sapiens
# Text: as §1
# [9] = test system: L428; settings: for GI50: Homo sapiens, L-428, HL
# Text: as §1
# [10] = test system: LP1; settings: for GI50: Homo sapiens, LP-1, MM
# Text: as §1
# [11] = test system: MOLM13-Luc; settings: AML
# Text: as §1
# [12] = test system: OPM2; settings: for GI50: Homo sapiens, OPM-2, MM
# Text: as §1
# [13] = test system: RPMI-8226; settings: MM; for GI50: Homo sapiens
# Text: as §1
# [14] = test system: SEM-Luc; settings: ALL
# Text: as §1
# [15] = test system: SET-2; settings: AML; for GI50: Homo sapiens
# Text: as §1
# [16] = test system: SR; settings: NHL; for GI50: Homo sapiens
# Text: as §1
# [17] = GI50 in nM, read-out: Log(GI50) (converted)
smiles,measurement,setting,value
CC(C)(C)[C@H](c1nc(-c2cc(F)ccc2F)cn1Cc1ccccc1)N(CC[C@H](N)CF)C(=O)CO [Compound IIa],Differential vs mean Log(GI50),[1],−0.697
same,GI50,[1]; [17],1.69 nM
same,GI50,[1]; read-out: GI50,1.69 nM
same,GI50,[2]; [17],0.335 nM
same,GI50,[2]; read-out: GI50,0.34 nM
same,Differential vs mean Log(GI50),[2]; MM,0.005
same,Differential vs mean Log(GI50),[3],−0.173
same,GI50,[3]; [17],0.505 nM
same,GI50,[3]; read-out: GI50,0.51 nM
same,Differential vs mean Log(GI50),[4],0.210
same,GI50,[4]; [17],0.209 nM
same,GI50,[4]; read-out: GI50,0.21 nM
same,Differential vs mean Log(GI50),[5],0.162
same,GI50,[5]; [17],0.233 nM
same,GI50,[5]; read-out: GI50,0.23 nM
same,GI50,[6]; [17],0.483 nM
same,GI50,[6]; read-out: GI50,0.48 nM
same,Differential vs mean Log(GI50),[6]; MM,−0.154
same,Differential vs mean Log(GI50),[7],−1.775
same,GI50,[7]; [17],20.2 nM
same,GI50,[7]; read-out: GI50,20.2 nM
same,Differential vs mean Log(GI50),[8],−0.113
same,GI50,[8]; [17],0.44 nM
same,GI50,[8]; read-out: GI50,0.44 nM
same,Differential vs mean Log(GI50),[9]; HL,−1.771
same,GI50,[9]; [17],20 nM
same,GI50,[9]; read-out: GI50,20 nM
same,GI50,[10]; [17],0.205 nM
same,GI50,[10]; read-out: GI50,0.21 nM
same,Differential vs mean Log(GI50),[10]; MM,0.218
same,Differential vs mean Log(GI50),[11],0.175
same,GI50,[11]; [17],0.226 nM
same,GI50,[11]; read-out: GI50,0.23 nM
same,GI50,[12]; [17],0.135 nM
same,GI50,[12]; read-out: GI50,0.14 nM
same,Differential vs mean Log(GI50),[12]; MM,0.400
same,GI50,[13]; [17],0.262 nM
same,GI50,[13]; read-out: GI50,0.26 nM
same,Differential vs mean Log(GI50),[13],0.112
same,Differential vs mean Log(GI50),[14],0.354
same,GI50,[14]; [17],0.15 nM
same,GI50,[14]; read-out: GI50,0.15 nM
same,Differential vs mean Log(GI50),[15],−0.001
same,GI50,[15]; [17],0.34 nM
same,GI50,[15]; read-out: GI50,0.34 nM
same,GI50,[16]; [17],0.11 nM
same,GI50,[16]; read-out: GI50,0.11 nM
same,Differential vs mean Log(GI50),[16],0.487
